This assay concerns MV-4-11 cells. Kind of assay: Gene expression microarray analysis (Affymetrix PrimeView) and GSEA. To be noted: MV-4-11 cells, 48 hours. Also noted: RFU PODN (11730768_x_at) / Fold change /veh PODN (11730768_x_at) / RFU LINC00158 (11744669_a_at) / Fold change /veh LINC00158 (11744669_a_at) / RFU DUSP10 (11751237_a_at) / Fold change /veh DUSP10 (11751237_a_at) / RFU ID3 (11757404_x_at) / Fold change /veh ID3 (11757404_x_at) / RFU PLEKHG5 (11737974_s_at) / Fold change /veh PLEKHG5 (11737974_s_at) / RFU LRRC4B (11730491_at) / Fold change /veh LRRC4B (11730491_at) / RFU GIMAP4 (11747438_a_at) / Fold change /veh GIMAP4 (11747438_a_at) / RFU KRT8 (11758183_x_at) / Fold change /veh KRT8 (11758183_x_at) / RFU CNN1 (11734310_a_at) / Fold change /veh CNN1 (11734310_a_at) / RFU VPS37D (11726825_at) / Fold change /veh VPS37D (11726825_at) / RFU C10orf10 (11716522_x_at) / Fold change /veh C10orf10 (11716522_x_at) / RFU KIR2DL2 /// KIR2DL4 /// KIR2DL5A /// KIR2DL5B /// KIR2DS1 /// KIR2DS2 /// KIR2DS3 /// KIR2DS4 /// KIR3DL3 /// KIR3DL3 /// KIR3DS1 (11738374_at) / Fold change /veh KIR2DL2 /// KIR2DL4 /// KIR2DL5A /// KIR2DL5B /// KIR2DS1 /// KIR2DS2 /// KIR2DS3 /// KIR2DS4 /// KIR3DL3 /// KIR3DL3 /// KIR3DS1 (11738374_at) / RFU C1QL1 (11718748_at) / Fold change /veh C1QL1 (11718748_at) / RFU TMPRSS4 (11747572_a_at) / Fold change /veh TMPRSS4 (11747572_a_at) / RFU HAMP (11756126_x_at) / Fold change /veh HAMP (11756126_x_at) / RFU RNFT2 (11725882_a_at) / Fold change /veh RNFT2 (11725882_a_at) / RFU NR4A2 (11747474_a_at) / Fold change /veh NR4A2 (11747474_a_at) / RFU ABCC12 (11746883_a_at) / Fold change /veh ABCC12 (11746883_a_at) / RFU TMEM136 (11760407_x_at) / Fold change /veh TMEM136 (11760407_x_at) / RFU CLDN22 /// WWC2 (11732394_at) / Fold change /veh CLDN22 /// WWC2 (11732394_at) / RFU HLA-DPB1 (11760878_x_at) / Fold change /veh HLA-DPB1 (11760878_x_at) / RFU SPINT1 (11716480_a_at) / Fold change /veh SPINT1 (11716480_a_at) / RFU GAP43 (11754022_s_at) / Fold change /veh GAP43 (11754022_s_at) / RFU A4GNT (11735810_at) / Fold change /veh A4GNT (11735810_at) / RFU PRB3 (11715151_x_at) / Fold change /veh PRB3 (11715151_x_at) / RFU TUBB4B (11761932_at) / Fold change /veh TUBB4B (11761932_at) / RFU CAPN14 (11732068_a_at) / Fold change /veh CAPN14 (11732068_a_at) / RFU TMCC2 (11721928_a_at) / Fold change /veh TMCC2 (11721928_a_at) / RFU IRGQ (11745062_a_at) / Fold change /veh IRGQ (11745062_a_at) / RFU FAM174B (11720279_a_at) / Fold change /veh FAM174B (11720279_a_at) / RFU TMPRSS4 (11748680_a_at) / Fold change /veh TMPRSS4 (11748680_a_at) / RFU FAM212B (11763350_a_at) / Fold change /veh FAM212B (11763350_a_at) / RFU PLEKHG5 (11743358_a_at) / Fold change /veh PLEKHG5 (11743358_a_at) / RFU ZSCAN30 (11745921_a_at) / Fold change /veh ZSCAN30 (11745921_a_at) / RFU CMKLR1 (11741424_a_at) / Fold change /veh CMKLR1 (11741424_a_at) / RFU LOC101060620 /// MAPK8IP1 (11723275_at) / Fold change /veh LOC101060620 /// MAPK8IP1 (11723275_at) / RFU SPTSSB (11747773_x_at) / Fold change /veh SPTSSB (11747773_x_at) / RFU PRSS12 (11739890_at) / Fold change /veh PRSS12 (11739890_at) / RFU BIN1 (11741810_x_at) / Fold change /veh BIN1 (11741810_x_at) / RFU WNT11 (11732464_a_at) / Fold change /veh WNT11 (11732464_a_at) / RFU C10orf10 (11716521_a_at) / Fold change /veh C10orf10 (11716521_a_at) / RFU C5orf56 (11738089_at) / Fold change /veh C5orf56 (11738089_at) / RFU CYB561 (11721691_x_at) / Fold change /veh CYB561 (11721691_x_at) / RFU ANKRD19P (11752326_a_at) / Fold change /veh ANKRD19P (11752326_a_at) / RFU OR2T12 /// OR2T33 /// OR2T8 (11738714_s_at) / Fold change /veh OR2T12 /// OR2T33 /// OR2T8 (11738714_s_at) / RFU VCAN (11748164_a_at) / Fold change /veh VCAN (11748164_a_at) / RFU JSRP1 (11732532_at) / Fold change /veh JSRP1 (11732532_at) / RFU KRTAP10-11 (11738290_x_at) / Fold change /veh KRTAP10-11 (11738290_x_at) / RFU MYO3A (11730013_a_at) / Fold change /veh MYO3A (11730013_a_at) / RFU EBF3 (11725865_a_at) / Fold change /veh EBF3 (11725865_a_at) / RFU CAMK2N1 (11719241_x_at) / Fold change /veh CAMK2N1 (11719241_x_at) / RFU C5orf56 (11738088_a_at) / Fold change /veh C5orf56 (11738088_a_at) / RFU OLFML3 (11715873_a_at) / Fold change /veh OLFML3 (11715873_a_at) / RFU LOC100653217 /// NTM (11731650_a_at) / Fold change /veh LOC100653217 /// NTM (11731650_a_at) / RFU MAPK11 (11762145_a_at) / Fold change /veh MAPK11 (11762145_a_at) / RFU FIZ1 (11724087_x_at) / Fold change /veh FIZ1 (11724087_x_at) / RFU OASL (11726364_x_at) / Fold change /veh OASL (11726364_x_at) / RFU SOX15 (11748057_x_at) / Fold change /veh SOX15 (11748057_x_at) / RFU CD79A (11719716_a_at) / Fold change /veh CD79A (11719716_a_at) / RFU HIST1H1D (11736915_at) / Fold change /veh HIST1H1D (11736915_at) / RFU CASKIN2 (11723855_a_at) / Fold change /veh CASKIN2 (11723855_a_at) / RFU LOC730098 (11760151_x_at) / Fold change /veh LOC730098 (11760151_x_at) / RFU OR4N2 (11742367_at) / Fold change /veh OR4N2 (11742367_at) / RFU PRRT2 (11749266_a_at) / Fold change /veh PRRT2 (11749266_a_at) / RFU SNX32 (11753110_a_at) / Fold change /veh SNX32 (11753110_a_at) / RFU CDHR5 (11726645_a_at) / Fold change /veh CDHR5 (11726645_a_at) / RFU RCAN1 (11760418_a_at) / Fold change /veh RCAN1 (11760418_a_at) / RFU FAM167A (11723789_a_at) / Fold change /veh FAM167A (11723789_a_at) / RFU FAM26E (11764081_at) / Fold change /veh FAM26E (11764081_at) / RFU ISYNA1 (11749810_s_at) / Fold change /veh ISYNA1 (11749810_s_at) / RFU ACY1 (11761880_at) / Fold change /veh ACY1 (11761880_at) / RFU 11764098_at / Fold change /veh 11764098_at / RFU SAMD14 (11745864_x_at) / Fold change /veh SAMD14 (11745864_x_at) / RFU NPB (11741838_a_at) / Fold change /veh NPB (11741838_a_at) / RFU TMPRSS6 (11731388_a_at) / Fold change /veh TMPRSS6 (11731388_a_at) / RFU KRTAP10-2 (11738614_at) / Fold change /veh KRTAP10-2 (11738614_at) / RFU ARHGAP8 /// PRR5-ARHGAP8 (11727945_x_at) / Fold change /veh ARHGAP8 /// PRR5-ARHGAP8 (11727945_x_at) / RFU KRTAP5-7 /// NADSYN1 (11734609_at) / Fold change /veh KRTAP5-7 /// NADSYN1 (11734609_at) / RFU RASL12 (11751679_a_at) / Fold change /veh RASL12 (11751679_a_at) / RFU CDKN2B (11736163_a_at) / Fold change /veh CDKN2B (11736163_a_at) / RFU PRF1 (11729649_at) / Fold change /veh PRF1 (11729649_at) / RFU, ZNF638 /// ZNF638-IT1 / Fold change vs veh, ZNF638 /// ZNF638-IT1 / RFU, PANK3 / Fold change vs veh, PANK3 / RFU, SH3YL1 / Fold change vs veh, SH3YL1 / RFU, ZEB2 / Fold change vs veh, ZEB2 / RFU, NRIP1 / Fold change vs veh, NRIP1 / RFU, PTTG1IP / Fold change vs veh, PTTG1IP / RFU, CAPN2 / Fold change vs veh, CAPN2 / RFU, MED14 / Fold change vs veh, MED14 / RFU, SNORA58 / Fold change vs veh, SNORA58 / RFU, C1orf63 / Fold change vs veh, C1orf63 / RFU, LRRFIP1 / Fold change vs veh, LRRFIP1 / RFU, NDUFAF7 / Fold change vs veh, NDUFAF7 / RFU, SLC12A2 / Fold change vs veh, SLC12A2 / RFU, IBTK / Fold change vs veh, IBTK / RFU, ESF1 / Fold change vs veh, ESF1 / Fold change vs veh, TMEM50B / RFU, TAOK1 / Fold change vs veh, TAOK1 / RFU, ACBD3 / Fold change vs veh, ACBD3 / RFU, TMA16 / Fold change vs veh, TMA16 / RFU, RWDD3 / Fold change vs veh, RWDD3 / RFU, BCAT1 / Fold change vs veh, BCAT1 / RFU, EDEM3 / Fold change vs veh, EDEM3 / RFU, TMEM33 / Fold change vs veh, TMEM33 / RFU, WDR75 / Fold change vs veh, WDR75 / RFU, AHCTF1 / Fold change vs veh, AHCTF1 / RFU, TFRC / Fold change vs veh, TFRC / RFU, ZDHHC17 / Fold change vs veh, ZDHHC17 / RFU, NOM1 / Fold change vs veh, NOM1 / RFU, ARL8B / Fold change vs veh, ARL8B / RFU, ZBTB11 / Fold change vs veh, ZBTB11 / RFU, TAMM41 / Fold change vs veh, TAMM41 / RFU, KIAA1704 /// LOC100996395 / Fold change vs veh, KIAA1704 /// LOC100996395 / RFU, ING1 / Fold change vs veh, ING1 / RFU, TRMT61B / Fold change vs veh, TRMT61B / RFU, FUBP3 / Fold change vs veh, FUBP3 / RFU, TP53 / Fold change vs veh, TP53 / RFU, TNKS2 / Fold change vs veh, TNKS2 / RFU, ZFP14 / Fold change vs veh, ZFP14 / RFU, ACTR2 / Fold change vs veh, ACTR2 / RFU, PPP3R1 / Fold change vs veh, PPP3R1 / RFU, PIK3R1 / Fold change vs veh, PIK3R1 / RFU, HNRNPA1 / Fold change vs veh, HNRNPA1 / RFU, RNF170 / Fold change vs veh, RNF170 / RFU, ZNF28 / Fold change vs veh, ZNF28 / RFU, RNGTT / Fold change vs veh, RNGTT / RFU, OGT / Fold change vs veh, OGT / RFU, BRD1 / Fold change vs veh, BRD1 / RFU, MARS / Fold change vs veh, MARS / RFU, ZNF655 / Fold change vs veh, ZNF655 / RFU, FAHD1 / Fold change vs veh, FAHD1 / RFU, BDP1 / Fold change vs veh, BDP1 / RFU, LRRCC1 / Fold change vs veh, LRRCC1 / RFU, ARID1A / Fold change vs veh, ARID1A / RFU, ZNF146 / Fold change vs veh, ZNF146 / RFU, ZNF330 / Fold change vs veh, ZNF330 / RFU, GPN3 / Fold change vs veh, GPN3 / RFU, C9orf123 / Fold change vs veh, C9orf123 / RFU, N4BP2L2 / Fold change vs veh, N4BP2L2 / RFU, ARFIP1 / Fold change vs veh, ARFIP1 / RFU, FAM179B / Fold change vs veh, FAM179B / RFU, BCL10 / Fold change vs veh, BCL10 / RFU, UHRF1BP1L / Fold change vs veh, UHRF1BP1L / RFU, BET1 / Fold change vs veh, BET1 / RFU, CNOT2 / Fold change vs veh, CNOT2 / RFU, ZNF268 / Fold change vs veh, ZNF268 / Fold change vs veh, ZNF507 / RFU, DGCR2 / Fold change vs veh, DGCR2 / RFU, WDSUB1 / Fold change vs veh, WDSUB1 / Fold change vs veh, HSP90B1 /// MIR3652 / RFU, ADSS / Fold change vs veh, ADSS / RFU, GK / Fold change vs veh, GK / RFU, ZNF148 / Fold change vs veh, ZNF148 / RFU, TAF9 / Fold change vs veh, TAF9 / RFU, SLC1A5 / Fold change vs veh, SLC1A5 / RFU, SLMO2 / Fold change vs veh, SLMO2 / RFU, ABCC4 / Fold change vs veh, ABCC4 / RFU, LOC101060439 /// RAP1B / Fold change vs veh, LOC101060439 /// RAP1B / RFU, RFX7 / Fold change vs veh, RFX7 / RFU, GTPBP10 / Fold change vs veh, GTPBP10 / RFU, CNEP1R1 / Fold change vs veh, CNEP1R1 / RFU, BIVM-ERCC5 /// ERCC5 / Fold change vs veh, BIVM-ERCC5 /// ERCC5 / RFU, ILF3 / Fold change vs veh, ILF3 / RFU 11762660_at / Fold change /veh 11762660_at / RFU VCAN (11757783_s_at) / Fold change /veh VCAN (11757783_s_at) / RFU DDX43 (11728927_at) / Fold change /veh DDX43 (11728927_at) / RFU KRT8 (11758188_x_at) / Fold change /veh KRT8 (11758188_x_at) / RFU NKD1 (11759106_at) / Fold change /veh NKD1 (11759106_at) / RFU SRD5A1 (11742802_a_at) / Fold change /veh SRD5A1 (11742802_a_at) / RFU TPSAB1 /// TPSB2 (11721975_s_at) / Fold change /veh TPSAB1 /// TPSB2 (11721975_s_at) / RFU GSTM3 (11746129_a_at) / Fold change /veh GSTM3 (11746129_a_at) / RFU IL23R (11737362_x_at) / Fold change /veh IL23R (11737362_x_at) / RFU TMEM51 (11727254_a_at) / Fold change /veh TMEM51 (11727254_a_at) / RFU PIWIL2 (11732686_x_at) / Fold change /veh PIWIL2 (11732686_x_at) / RFU ORM1 (11744905_x_at) / Fold change /veh ORM1 (11744905_x_at) / RFU CCDC152 (11743942_at) / Fold change /veh CCDC152 (11743942_at) / RFU ECM1 (11717891_a_at) / Fold change /veh ECM1 (11717891_a_at) / RFU IL23R (11748794_a_at) / Fold change /veh IL23R (11748794_a_at) / RFU TNFAIP8L3 (11732012_x_at) / Fold change /veh TNFAIP8L3 (11732012_x_at) / RFU MBOAT4 (11741988_at) / Fold change /veh MBOAT4 (11741988_at) / RFU 11764193_at / Fold change /veh 11764193_at / RFU TMEM53 (11763286_at) / Fold change /veh TMEM53 (11763286_at) / RFU MAGEB2 (11727129_at) / Fold change /veh MAGEB2 (11727129_at) / RFU TMEM200A (11744735_a_at) / Fold change /veh TMEM200A (11744735_a_at) / RFU CCDC152 (11751479_a_at) / Fold change /veh CCDC152 (11751479_a_at) / RFU FAM211A (11726209_a_at) / Fold change /veh FAM211A (11726209_a_at) / RFU RGS16 (11746705_a_at) / Fold change /veh RGS16 (11746705_a_at) / RFU VCAN (11755009_s_at) / Fold change /veh VCAN (11755009_s_at) / RFU RHOB (11743442_s_at) / Fold change /veh RHOB (11743442_s_at) / RFU RGS16 (11720943_a_at) / Fold change /veh RGS16 (11720943_a_at) / RFU RGS16 (11720944_at) / Fold change /veh RGS16 (11720944_at) / RFU, VPS4B / Fold change vs veh, VPS4B / RFU, CREB1 / Fold change vs veh, CREB1 / RFU, DNAJC13 / Fold change vs veh, DNAJC13 / RFU, GNAQ / Fold change vs veh, GNAQ / RFU, CDK5R1 / Fold change vs veh, CDK5R1 / RFU, ZRANB3 / Fold change vs veh, ZRANB3 / RFU, CUL4A / Fold change vs veh, CUL4A / RFU, CCNY / Fold change vs veh, CCNY / RFU, UFL1 / Fold change vs veh, UFL1 / RFU, COG3 / Fold change vs veh, COG3 / RFU, DIAPH2 / Fold change vs veh, DIAPH2 / RFU, SKA2 / Fold change vs veh, SKA2 / RFU, AFF3 / Fold change vs veh, AFF3 / RFU, LMF1 / Fold change vs veh, LMF1 / RFU, IPO11 / Fold change vs veh, IPO11 / RFU, DFFB / Fold change vs veh, DFFB / RFU, FOXP1 / Fold change vs veh, FOXP1 / RFU, CARD8 / Fold change vs veh, CARD8 / RFU, STRN3 / Fold change vs veh, STRN3 / RFU, ADK / Fold change vs veh, ADK / RFU, RASSF2 / Fold change vs veh, RASSF2 / RFU, WIPF1 / Fold change vs veh, WIPF1 / RFU, LARP1B / Fold change vs veh, LARP1B / RFU, RASA1 / Fold change vs veh, RASA1 / RFU, RB1 / Fold change vs veh, RB1 / RFU, PPFIA1 / Fold change vs veh, PPFIA1 / RFU, MAT2A / Fold change vs veh, MAT2A / RFU, CCT5 / Fold change vs veh, CCT5 / RFU, WDR92 / Fold change vs veh, WDR92 / RFU, CUX1 / Fold change vs veh, CUX1 / RFU, TTC7A / Fold change vs veh, TTC7A / RFU, TMEM135 / Fold change vs veh, TMEM135 / RFU, DEPTOR / Fold change vs veh, DEPTOR / RFU, CPM / Fold change vs veh, CPM / RFU, DNAJB6 / Fold change vs veh, DNAJB6 / RFU, CACNA2D3 / Fold change vs veh, CACNA2D3 / RFU, DTX4 / Fold change vs veh, DTX4 / RFU, TFCP2 / Fold change vs veh, TFCP2 / RFU, GMCL1 /// GMCL1P1 / Fold change vs veh, GMCL1 /// GMCL1P1 / RFU, AEBP2 / Fold change vs veh, AEBP2 / RFU, SNHG1 /// SNORD22 /// SNORD25 /// SNORD26 /// SNORD27 /// SNORD28 /// SNORD29 /// SNORD31 / Fold change vs veh, SNHG1 /// SNORD22 /// SNORD25 /// SNORD26 /// SNORD27 /// SNORD28 /// SNORD29 /// SNORD31 / Fold change (Aza/veh), C12orf56 (ProbeSet 11735607_a_at) / Fold change (ACY-1035/veh), C12orf56 (ProbeSet 11735607_a_at) / Fold change (Aza/veh), FGFR1OP (ProbeSet 11751329_s_at) / Fold change (ACY-1035/veh), FGFR1OP (ProbeSet 11751329_s_at) / Fold change (Aza/veh), VPS36 (ProbeSet 11739960_a_at) / Fold change (ACY-1035/veh), VPS36 (ProbeSet 11739960_a_at) / RFU SYPL1 (11715823_x_at) / Fold change /veh SYPL1 (11715823_x_at) / RFU IGFBP7 (11715501_s_at) / Fold change /veh IGFBP7 (11715501_s_at) / RFU REEP3 (11722064_at) / Fold change /veh REEP3 (11722064_at) / RFU IGLL1 (11728026_x_at) / Fold change /veh IGLL1 (11728026_x_at): dose or concentration left out as unconfirmed. The format is cell-based, human.

Take `Nc1ncn([C@@H]2O[C@H](CO)[C@@H](O)[C@H]2O)c(=O)n1` [azacitidine]: the “RFU FAM167A (11723789_a_at)” value came to 38.83 RFU.

The values are drawn from article PMC5218480 (PLoS ONE, 2017).
